According to patent US8871934B2, “Fluorene compound and pharmaceutical use thereof” (Japan Tobacco Inc., priority 2008, dated 2014):
Read-outs that look alike come from different tables or passages of the source. Values belong to the molecule of their own block, whether it stands above or below them.

Biological target: human PDHK2 (hPDHK2) (Homo sapiens (Human), UniProt Q15119)
Assay: Inhibitory action of PDHK activity in vitro (kinase reaction, residual PDH activity measured)
Assay type: biochemical
Procedure: In the case of human PDHK2 (hPDHK2, Genbank Accession No. NM_002611), modified hPDHK2 cDNA wherein FLAG-Tag sequence is added to the N terminal by a polymerase linkage reaction was prepared based on hPDHK2 cDNA clone (pReceiver-M01/PDK2-GeneCopoeia), and cloned into a vector (pET17b-Novagen). The recombinant construct was transformed into Escherichia coli (DH5α-TOYOBO). The recombinant clones were identified, plasmid DNA was isolated and subjected to the DNA sequence analysis. One clone which had the expected nucleic acid sequence was selected for expression work.
During the assay, the hPDHK2 enzyme concentration was set to the minimal concentration at which PDH is inhibited the most.
0.05 U/mL PDH (porcine heart PDH complex, Sigma P7032) and 1.6 μg/mL hPDHK2 were mixed in a buffer (50 mmol/L 3-morpholinopropanesulfonic acid (pH 7.0), 20 mmol/L dipotassium hydrogen phosphate, 60 mmol/L potassium chloride, 2 mmol/L magnesium chloride, 0.4 mmol/L EDTA, and 0.2% Pluronic F-68, 2 mmol/L dithiothreitol), the mixture was incubated at 4° C. overnight to give PDH/hPDHK2 complex. The test compound was diluted with dimethyl sulfoxide (DMSO). PDH/hPDHK2 complex (20 μL), test compound (1.5 μL) and 3.53 μmol/L ATP (diluted with buffer, 8.5 μL) were added to a half area 96 well UV-transparent microplate (Corning 3679), and PDHK reaction was performed at room temperature for 45 min. Instead of the test compound, DMSO (1.5 μL) was added to a control well. DMSO (1.5 μL) was added instead of the test compound to a blank well for the measurement of the maximum rate of PDH reaction, and hPDHK2 was not added. Than, 10 μL of substrates (5 mmol/L sodium pyruvate, 5 mmol/L Coenzyme A, 12 mmol/L NAD, and 5 mmol/L thiamine pyrophosphate, diluted with buffer) was added. The mixture was incubated at room temperature for 90 min, and the residual PDH activity was measured. The absorbance at 340 nm before and after PDH reaction was measured on a microplate reader to detect NADH produced by the PDH reaction. The PDHK inhibitory rate (%) of the test compound was calculated from the formula [{(PDH activity of test compound—PDH activity of control)/PDH activity of blank—PDH activity of control)}×100]. The IC50 value was calculated from the concentrations of the test compound at two points enclosing 50% inhibition of the PDHK activity.

[1] = PDHK inhibitory activity, class symbol of IC50
[2] = read-out: PDHK inhibitory activity IC50
[3] = PDHK inhibitory activity (class symbol)
[4] = PDHK inhibitory activity IC50 (μmol/L)

SMILES: OC[C@@H](O)Cn1cc(-c2cc(F)cc3c2-c2ccccc2C3(O)C(F)(F)F)cn1 (single isomer, unassigned) [compound 565]
IC50 [1]: < 100 nM
IC50 [2]: 18 nM

SMILES: CN(CCOc1ccc2c(c1)C(O)(C(F)(F)F)c1ccccc1-2)C(=O)OC(C)(C)C (centres unmarked) [compound 324]
IC50 [1]: 100 to 1000 nM
IC50 [2]: 203 nM

SMILES: NC(=O)COC1CN(C(=O)c2ccc3c(c2)C(O)(C(F)(F)F)c2ccccc2-3)C1 (centres unmarked) [compound 116]
IC50 [1]: 100 to 1000 nM
IC50 [2]: 601 nM

SMILES: COC(=O)c1cc(Cl)cc2c1-c1ccccc1C2(O)C(F)(F)F (single isomer, unassigned) [compound 617]
IC50 [3]: < 100 nM
IC50 [2]: 84 nM

SMILES: CCOC(=O)c1ccc(-c2ccc3c(c2)C(O)(C(F)(F)F)c2ccccc2-3)cc1 (centres unmarked) [compound 175]
IC50 [1]: 100 to 1000 nM
IC50 [2]: 517 nM

SMILES: NC(=O)c1cc(C(=O)N2CCC2)cc2c1-c1ccccc1C2(O)C(F)(F)F (centres unmarked) [compound 174]
IC50 [1]: < 100 nM
IC50 [2]: 66 nM

SMILES: Cc1cc(C(=O)N2CCC2)cc2c1-c1ccccc1C2(O)C(F)(F)F (single isomer, unassigned) [compound 136]
IC50 [1]: < 100 nM
IC50 [2]: 25 nM

SMILES: NC(=O)c1cc(CCCN2CCCC2=O)cc2c1-c1ccccc1C2(O)C(F)(F)F (centres unmarked) [compound 655]
IC50 [3]: < 100 nM
IC50 [2]: 73 nM

SMILES: COC(=O)N1CCN(c2ccc3c(c2)C(O)(C(F)(F)F)c2ccccc2-3)CC1 (centres unmarked) [compound 210]
IC50 [1]: > 1000 nM
IC50 [2]: 1330 nM

SMILES: CCOC(=O)CCCCOc1ccc2c(c1)C(O)(C(F)(F)F)c1ccccc1-2 (centres unmarked) [compound 283]
IC50 [1]: 100 to 1000 nM
IC50 [2]: 571 nM

SMILES: CN(C)C(=O)c1cc(-c2cncnc2)c2c(c1)C(O)(C(F)(F)F)c1ccccc1-2 (centres unmarked) [compound 368]
IC50 [1]: 100 to 1000 nM
IC50 [2]: 180 nM

SMILES: NC(=O)c1ccc2c(c1)C(O)(C(F)(F)F)c1ccccc1-2 (centres unmarked) [compound 29]
IC50 [1]: > 1000 nM
IC50 [2]: 5740 nM

SMILES: CCCCOc1ccc2c(c1)C(O)(C(F)(F)F)c1ccccc1-2 (centres unmarked) [compound 249]
IC50 [1]: 100 to 1000 nM
IC50 [2]: 719 nM

IC50 [4]: 16 nM
IC50 [1]: < 100 nM
SMILES: CNC(=O)Cn1cc(-c2cc(F)cc3c2-c2ccccc2[C@]3(O)C(F)(F)F)cn1 (stereo in doubt) [compound 534]

SMILES: CC(O)c1cc(-c2cnn(CCO)c2)cc2c1-c1ccccc1C2(O)C(F)(F)F (centres unmarked) [compound 586]
IC50 [1]: 100 to 1000 nM
IC50 [2]: 513 nM

SMILES: CC(=O)N(C)Cc1ccc2c(c1)C(O)(C(F)(F)F)c1ccccc1-2 (centres unmarked) [compound 418]
IC50 [1]: > 1000 nM
IC50 [2]: 6060 nM

SMILES: CNC(=O)Cn1cc(-c2cc(C)cc3c2-c2ccccc2C3(O)C(F)(F)F)cn1 (centres unmarked) [compound 512]
IC50 [1]: < 100 nM
IC50 [2]: 38 nM

SMILES: CCC(=O)c1cccc2c1-c1ccccc1C2(O)C(F)(F)F (centres unmarked) [compound 81]
IC50 [1]: > 1000 nM
IC50 [2]: 2760 nM

SMILES: NC(=O)c1cc(OCCN2CCCOC2=O)cc2c1-c1ccccc1C2(O)C(F)(F)F (centres unmarked) [compound 612]
IC50 [3]: < 100 nM
IC50 [2]: 47 nM

IC50 [4]: 36 nM
IC50 [1]: < 100 nM
SMILES: O=C(O)CCn1cc(-c2cc(F)cc3c2-c2ccccc2[C@]3(O)C(F)(F)F)cn1 (stereo in doubt) [compound 543]

SMILES: OCCn1cc(-c2cnc3c(c2)C(O)(C(F)(F)F)c2ccccc2-3)cn1 (centres unmarked) [compound 563]
IC50 [1]: < 100 nM
IC50 [2]: 63 nM

SMILES: O=C(c1ccc2c(c1)C(O)(C(F)(F)F)c1ccccc1-2)N1CCCC1 (centres unmarked) [compound 53]
IC50 [1]: 100 to 1000 nM
IC50 [2]: 567 nM

SMILES: CN(CCCCO)C(=O)c1ccc2c(c1)C(O)(C(F)(F)F)c1ccccc1-2 (centres unmarked) [compound 319]
IC50 [1]: > 1000 nM
IC50 [2]: 3090 nM

SMILES: OC1(C(F)(F)F)c2ccccc2-c2ccc(-c3ccc(Cl)cc3)cc21 (centres unmarked) [compound 179]
IC50 [1]: > 1000 nM
IC50 [2]: 1340 nM

SMILES: CN(C)C(=O)C1CCCN1C(=O)c1ccc2c(c1)C(O)(C(F)(F)F)c1ccccc1-2 (centres unmarked) [compound 178]
IC50 [1]: > 1000 nM
IC50 [2]: > 10000 nM

SMILES: O=C(c1ccc2c(c1)C(O)(C(F)(F)F)c1ccccc1-2)N1CC(C(=O)N2CCC(O)C2)C1 (centres unmarked) [compound 337]
IC50 [1]: 100 to 1000 nM
IC50 [2]: 499 nM

SMILES: O=C(c1ccc2c(c1)C(O)(C(F)(F)F)c1ccccc1-2)C1CCC1 (centres unmarked) [compound 119]
IC50 [1]: > 1000 nM
IC50 [2]: 1000 nM

SMILES: CC(C)(C)CCc1cc(-c2cnn(C(CO)CO)c2)c2c(c1)C(O)(C(F)(F)F)c1ccccc1-2 (single isomer, unassigned) [compound 669]
IC50 [3]: < 100 nM
IC50 [2]: 17 nM

SMILES: COC(=O)c1cc(Cl)cc2c1-c1ccccc1C2(O)C(F)(F)F (centres unmarked) [compound 616]
IC50 [3]: 100 to 1000 nM
IC50 [2]: 192 nM

SMILES: CCCc1ccc2c(c1)C(O)(C(F)(F)F)c1ccccc1-2 (centres unmarked) [compound 70]
IC50 [1]: > 1000 nM
IC50 [2]: 2210 nM

SMILES: OCCOc1ccc2c(c1)C(O)(C(F)(F)F)c1ccccc1-2 (centres unmarked) [compound 292]
IC50 [1]: > 1000 nM
IC50 [2]: 2570 nM

SMILES: O=C(c1ccc2c(c1)C(O)(C(F)(F)F)c1ccccc1-2)c1cccs1 (centres unmarked) [compound 99]
IC50 [1]: 100 to 1000 nM
IC50 [2]: 718 nM

SMILES: OCCCCOc1cc(-c2cnn(CCO)c2)c2c(c1)C(O)(C(F)(F)F)c1ccccc1-2 (single isomer, unassigned) [compound 624]
IC50 [3]: < 100 nM
IC50 [2]: 14 nM

SMILES: COc1cccc2c1-c1ccccc1C2(O)C(F)(F)F (centres unmarked) [compound 46]
IC50 [1]: > 1000 nM
IC50 [2]: 6490 nM

SMILES: CN(c1ccccc1)c1ccc2c(c1)C(O)(C(F)(F)F)c1ccccc1-2 (centres unmarked) [compound 186]
IC50 [1]: > 1000 nM
IC50 [2]: 5910 nM

SMILES: OCCn1cc(-c2cc(OCCC34CC5CC(CC(C5)C3)C4)cc3c2-c2ccccc2C3(O)C(F)(F)F)cn1 (centres unmarked) [compound 509]
IC50 [1]: < 100 nM
IC50 [2]: 51 nM

SMILES: O=C(O)c1ccc(-c2cc(-c3cccnc3)c3c(c2)C(O)(C(F)(F)F)c2ccccc2-3)cc1 (centres unmarked) [compound 342]
IC50 [1]: < 100 nM
IC50 [2]: 47 nM

SMILES: CN(CCO)C(=O)COc1ccc2c(c1)C(O)(C(F)(F)F)c1ccccc1-2 (centres unmarked) [compound 366]
IC50 [1]: > 1000 nM
IC50 [2]: 2170 nM

SMILES: CNC(=O)CCOc1ccc2c(c1)C(O)(C(F)(F)F)c1ccccc1-2 (centres unmarked) [compound 302]
IC50 [1]: > 1000 nM
IC50 [2]: 1170 nM

SMILES: O=C(c1ccc2c(c1)C(O)(C(F)(F)F)c1ccccc1-2)N1CCOCC1 (centres unmarked) [compound 127]
IC50 [1]: > 1000 nM
IC50 [2]: > 10000 nM

SMILES: CC(C)(O)c1cc(-c2cnn(CCO)c2)cc2c1-c1ccccc1C2(O)C(F)(F)F (centres unmarked) [compound 592]
IC50 (class symbol of IC50, read-out: PDHK inhibitory activity): > 1000 nM
IC50 [2]: > 1000 nM

SMILES: CN(CCOc1cc(Cl)c2c(c1)C(O)(C(F)(F)F)c1ccccc1-2)S(C)(=O)=O (centres unmarked) [compound 408]
IC50 [1]: < 100 nM
IC50 [2]: 65 nM

SMILES: Cc1cc(-c2cnn(CCCCC(=O)O)c2)c2c(c1)C(O)(C(F)(F)F)c1ccccc1-2 (single isomer, unassigned) [compound 606]
IC50 [3]: < 100 nM
IC50 [2]: 28 nM

SMILES: CN(CCOc1cc(-c2cnn(C)c2)c2c(c1)C(O)(C(F)(F)F)c1ccccc1-2)C(=O)C(C)(C)CO (centres unmarked) [compound 489]
IC50 [1]: < 100 nM
IC50 [2]: 22 nM

SMILES: O=C(c1cc(CO)c2c(c1)C(O)(C(F)(F)F)c1ccccc1-2)N1CC(O)C1 (centres unmarked) [compound 644]
IC50 [3]: 100 to 1000 nM
IC50 [2]: 130 nM

SMILES: O=C(c1cc(-c2cnn(CCO)c2)c2c(c1)C(O)(C(F)(F)F)c1ccccc1-2)N1CCCC1 (centres unmarked) [compound 476]
IC50 [1]: < 100 nM
IC50 [2]: 53 nM

SMILES: OCCn1cc(-c2cccc3c2-c2ccccc2C3(O)C(F)(F)F)cn1 (centres unmarked) [compound 411]
IC50 [1]: < 100 nM
IC50 [2]: 66 nM

SMILES: CC(=O)N1CCN(c2ccc3c(c2)C(O)(C(F)(F)F)c2ccccc2-3)CC1 (centres unmarked) [compound 165]
IC50 [1]: 100 to 1000 nM
IC50 [2]: 957 nM

SMILES: O=C1CCCCN1CCOc1ccc2c(c1)C(O)(C(F)(F)F)c1ccccc1-2 (centres unmarked) [compound 416]
IC50 [1]: 100 to 1000 nM
IC50 [2]: 104 nM

SMILES: OC1(C(F)(F)F)c2ccccc2-c2ccc(-c3ccncc3)cc21 (centres unmarked) [compound 103]
IC50 [1]: 100 to 1000 nM
IC50 [2]: 151 nM

SMILES: Cn1cc(-c2cc(C(=O)N3CC(OCCO)C3)cc3c2-c2ccccc2C3(O)C(F)(F)F)cn1 (centres unmarked) [compound 375]
IC50 [1]: < 100 nM
IC50 [2]: 50 nM

SMILES: O=C(c1cc(Cl)c2c(c1)C(O)(C(F)(F)F)c1ccccc1-2)N1CCC1 (centres unmarked) [compound 94]
IC50 [1]: < 100 nM
IC50 [2]: 49 nM

SMILES: Cc1cc(-c2ccc3c(c2)C(O)(C(F)(F)F)c2ccccc2-3)ccn1 (centres unmarked) [compound 198]
IC50 [1]: 100 to 1000 nM
IC50 [2]: 126 nM

SMILES: OC1(C(F)(F)F)c2ccccc2-c2ccc(OCc3ccccc3)cc21 (centres unmarked) [compound 262]
IC50 [1]: > 1000 nM
IC50 [2]: 1360 nM

SMILES: CCOC(=O)C1CCN(c2ccc3c(c2)C(O)(C(F)(F)F)c2ccccc2-3)CC1 (centres unmarked) [compound 223]
IC50 [1]: > 1000 nM
IC50 [2]: 2330 nM
